Where “and” joins values, the source holds several entries; their conditions need not be identical. Equal entries are not always repeated. Where two headings read alike, the source gives them in different places. Where a SMILES comes first, the peptide text is derived from it.
What was measured:
[1] = target: T1, retroviral protease (HIV-1) (Human immunodeficiency virus type 1 group M subtype B, UniProt P04585); test: fluorometric assay for HIV protease (Toth and Marshall); format: biochemical; details: for IC50: where isomers were resolved, activities of both isomers are shown; for inhibition at 10 µM: read-out: percent at 10 μM, at 10 μM
T1 construct: the retroviral protease, is contained within the polyprotein
Description: These peptide analogs were assayed in solution for their ability to inhibit retroviral protease (HIV-1) by a fluorometric assay for HIV protease as described by Toth and Marshall, Int. J. Peptide Protein Res. 36, 546-550 (1990), and in U.S. Pat. No. 5,011,910.
Table 2, below, sets forth the median inhibitory concentration, IC50, (μM) for the compounds thus tested. In those cases where the isomers were resolved, the activities of both isomers are shown.

HIV protease [2] = target: T2, HIV protease (Human immunodeficiency virus type 1 group M subtype B, UniProt P04585); format: biochemical; set-up: made in house; host or cells: chemical synthesis (gift of Dr. Stephen Kent, Caltech) or E. coli (gift of Dr. George Glover, Monsanto); details: for Relative Rate: relative cleavage rate: percent of standard substrate concentration cleaved in twenty minutes, control Ac-Thr-Ile-Met-Met-Gln-Arg-NH2 = 1.00
Description: HIV protease assay. The HIV protease assay was conducted using either synthetic HIV protease [Schneider and Kent, Cell 54, 363 (1988)] kindly supplied by Dr. Stephen Kent of Caltech, or cloned material expressed in E. coli supplied by Dr. George Glover of the Monsanto Company. […] Synthetic protease (1 mg/ml) was dissolved in a buffer (20 mM PIPES, 0.5% NP-40 detergent, 1 mM dithiothreitol), pH 6.5 . Substrates were also dissolved in the same buffer at 1 mg/ml concentration. 5 μl 1 of substrate and 5 μl of HIV protease were added to an Eppendorf tube which was centrifuged for one minute and incubated at 25° for the desired time. The reaction was stopped by the addition of 50 μl of 50% TFA. The sample was diluted with 200 μl of water and applied to a C4 HPLC column developed with 0.1% TFA for 5 min followed by a gradient of 0-50% acetonitrile in 50 min. For inhibitor studies, 5 μl of the protease solution was preincubated for 10 min with the 5 μl of inhibitor (dissolved in 10% DMSO and diluted to 1 mg/ml with buffer). Then 5 μl of test substrate, acetyl-Thr-Ile-Met-Met-Gln-Arg-NH2 was added in order to determine inhibition of cleavage. Reactions were stopped as above and cleavage rates were monitored by HPLC as above.
Substrate analogs were prepared in order to examine the relative hydrolysis rates of the various sites. […] Relative cleavage rates were measured by comparing the percent of a standard substrate concentration cleaved by the same concentration of enzyme in twenty minutes (linear portion of curve).

HIV protease [3] = target: T2, HIV protease; details: cited from earlier work

## CCCC[C@H](NC(=O)[C@@H](NC(=O)[C@@H](NC(=O)c1ccccc1N)[C@@H](C)O)[C@@H](C)CC)C(=O)CC(Cc1ccc2ccccc2c1)C(=O)N[C@@H](CCC(N)=O)C(=O)N[C@@H](CCCNC(=N)N)C(N)=O (stereo partly drawn) [Abz-Thr-Ile-Nle-.PSI.(K)2-Nal-Gln-Arg-NH2] (HELM PEPTIDE1{[Nc1ccccc1C(=O)[*:2]].T.I.[CCCC[C@H](N[*:1])C(=O)CC(Cc1ccc2ccccc2c1)C(=O)[*:2]].Q.R.[am]}$$$$V2.0)
[1]
  IC50: 4.8 nM

## CC[C@H](C)[C@H](NC(=O)[C@@H](NC(=O)c1ccccc1N)[C@@H](C)O)C(=O)N[C@@H](Cc1ccccc1)C(=O)CC(C)C(=O)N[C@@H](CCC(N)=O)C(=O)N[C@@H](CCCNC(=N)N)C(N)=O (stereo partly drawn) [Abz-Thr-Ile-Phe.PSI.(K)Ala-Gln-Arg-NH2] (HELM PEPTIDE1{[Nc1ccccc1C(=O)[*:2]].T.I.[CC(CC(=O)[C@H](Cc1ccccc1)N[*:1])C(=O)[*:2]].Q.R.[am]}$$$$V2.0)
[1]
  IC50: 33 nM

## CCCC[C@H](NC(=O)c1ccc2ccccc2n1)C(=O)CC(Cc1ccc2ccccc2c1)C(=O)N[C@@H](CCC(N)=O)C(=O)N[C@@H](CCCNC(=N)N)C(N)=O (stereo partly drawn) [Qua--Nle.psi.(K)2-Nal--Gln--Arg--NH2, Qua-Nle.PSI.(K)2-Nal-Gln-Arg-NH2]
[1]
  inhibition at 10 µM: 96%

## CCCC[C@H](NC(=O)[C@@H](NC(=O)c1ccc2ccccc2n1)[C@@H](C)CC)C(=O)CC(Cc1ccc2ccccc2c1)C(=O)N[C@@H](CCC(N)=O)C(=O)N[C@@H](CCCNC(=N)N)C(N)=O (stereo partly drawn) [Qua-Ile-Nle.PSI.(K)2-Nal-Gln-Arg-NH2]
[1]
  IC50: 8.5 nM

## CCCC[C@H](NC(=O)[C@@H](NC(=O)c1cnc2ccccc2n1)[C@@H](C)CC)C(=O)CC(Cc1ccc2ccccc2c1)C(=O)N[C@@H](CCC(N)=O)C(N)=O (stereo partly drawn) [Qui--Ile--Nle.psi.(K)2-Nal--Gln--NH2, Qui-Ile-Nle.PSI.(K)2-Nal-Gln-NH2]
[1]
  inhibition at 10 µM: 54%

## CCCC[C@H](NC(=O)c1cnc2ccccc2n1)C(=O)CC(Cc1ccc2ccccc2c1)C(=O)N[C@@H](CCC(N)=O)C(N)=O (stereo partly drawn) [Qui--Nle.psi.(K)2-Nal--Gln--NH2, Qui-Nle.PSI.(K)2-Nal-Gln-NH2]
[1]
  inhibition at 10 µM: 7%

## CCCC[C@H](NC(=O)[C@@H](NC(=O)[C@@H](NC(=O)c1cnc2ccccc2n1)[C@@H](C)O)[C@@H](C)CC)C(=O)CC(Cc1ccc2ccccc2c1)C(=O)N[C@@H](CCC(N)=O)C(N)=O (stereo partly drawn) [Qui-Thr-Ile-Nle.PSI.(K)2-Nal-Gln-NH2]
[1]
  IC50: 1110 nM and 8080 nM

## Aba--Thr--Ile--Nle--PnF--Gln--Arg--NH2
HIV protease [2]
  Relative Rate: 1.46

## Ac--Thr--Ile--Nle--Hle--Gln--Arg--NH2
HIV protease [2]
  Relative Rate: 0.95

## Ac-QNYPIV-NH2 [Ac--Gln--Asn--Tyr--Pro--Ile--Val--NH2]
HIV protease [2]
  Relative Rate: 0.04

## Ac-TIMMQR-NH2 [Ac--Thr--Ile--Met--Met--Gln--Arg--NH2, Ac-Thr-Ile-Met-Met-Gln-Arg-NH2]
HIV protease [2]; as substrate of HIV protease
  Km: 1400 µM
  Vmax: 725 nmol/min/mg
HIV protease [2]
  Relative Rate: 1.00

## SQNY-PI
HIV protease [3]
  cleavage by HIV protease: failed to be cleaved

## SQNY-PIV
HIV protease [3]; relative to VSQNYPIV
  rate of cleavage relative to the octapeptide: 90%

## VSQNYPIV
HIV protease [3]; gag p17/gag p24 cleavage site substrate
  Km: 2500 µM

## acetyl-QNY-PIV
HIV protease [3]
  cleavage by HIV protease: failed to be cleaved

Reference: patent US5086165A, “Inhibitors of retroviral protease with a ketomethylene isosteric replaced amide bond” (Washington University, priority 1991, dated 1992)
